How the values were obtained:
Type in all cases: physicochemical
[1] = Particle Size Distribution (PSD) by laser diffraction, Malvern Mastersizer 3000; conditions: dispersed in ethyl acetate
Description: Particle Size Distribution (PSD) by Laser Diffraction
Particle size analyses were conducted on a Malvern Mastersizer™ 3000 using the Hydro MV dispersion unit. A non-validated general PSD method/dispersant method was used to analyze the cisplatin samples. The sample preparation procedure performed was as follows:
Weigh 10 to 20 mg of cisplatin into a 30-mL vial, add 20 mL of ethyl acetate. Disperse the sample by vortexing then sonicating the suspension in an ultrasonic bath for 1 minute. Then transfer the sample suspension to the Malvem Hydro MV dispersion unit to obtain obscuration between 5 and 15%.

[2] = Specific Surface Area (SSA) by BET sorptometry
Description: As used herein, the “specific surface area” is the total surface area of the cisplatin particle per unit of cisplatin mass as measured by the Brunauer—Emmett—Teller (“BET”) isotherm (i.e.: the BET SSA). As will be understood by those of skill in the art, the SSA is determined on a per gram basis and takes into account both agglomerated and non-agglomerated cisplatin particles in the composition. The BET specific surface area test procedure is a compendial method included in both the United States Pharmaceopeia and the European Pharmaceopeia. The cisplatin particles have a specific surface area (SSA) of at least 3.5 m^2/g. In various further embodiments, the cisplatin particles have a SSA of at least 4 m^2/g, 5 m^2/g, 6 m^2/g, 7 m^2/g, 8 m^2/g, 9 m^2/g, 10 m^2/g, 11 m^2/g, 12 m^2/g, 13 m^2/g, 14 m^2/g, […] m^2/g, 17 m^2/g, 18 m^2/g, 19 m^2/g 20 m^2/g 21 m^2/g, 22 m^2/g, 23 m^2/g, or 24 m^2/g.
Specific Surface Area (SSA) determination by BET Sorptometry
Surface area analyses were conducted on a Quantachrome NOVAtouch™ LX2 BET Sorptometer. […] Surface area results can be found in Table 1.

[3] = Bulk density analysis (modified USP <616> Method I, 10 mL graduated cylinder); conditions: not tapped
Description: As used herein, the bulk density of the cisplatin particles is the mass of the totality of particles in the composition divided by the total volume they occupy when poured into a graduated cylinder and not tapped. The total volume includes particle volume, inter-particle void volume, and internal pore volume.
Bulk density analysis by modified USP <616>Bulk Density of Powders Method I
Bulk density analyses were conducted using a 10 mL graduated cylinder due to low sample volume. SC1 was the only precipitate measured due to insufficient materials available for analysis from SC2 and SC3. […] Bulk density results can be seen in Table 1.

With N.N.[Cl][Pt][Cl] [Raw, Cisplatin] the “PSD - Mastersizer Dv10” value [1] was 1.72 μm, the “PSD - Mastersizer Dv50” value [1] was 10.9 μm and the “PSD - Mastersizer Dv90” value [1] was 25.9 μm. For the same compound, the “Surface Area” value [2] was 2.44 m^2/g and the “Bulk Density” value [3] was 1.01 g/mL.

Reference: patent US20240156861A1, “Cisplatin particles and uses thereof” (CRITITECH, INC., priority 2022, published 2024)
